According to patent US20080234262A1 (Wyeth, priority 2007, published 2008):

Assays:
[1] = target: PI3K (Homo sapiens, UniProt P42336); assay: Fluorescence polarization assay for PI3K; type: biochemical; conditions: PI3Kα; read-out: PI3Kα IC50;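 further: PI3K kinase reaction on PIP2 with ATP, 30-60 min, product sensed by GST-GRP with red probe in fluorescence polarization (mP), controls without enzyme and at zero time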
[2] = system: breast line MDA468; assay: In vitro cell culture growth assay (MTS), MDA468; type: cell-based, human; conditions: MDA468 cells, three days after drug treatment
Method in brief: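 Cells were plated and, one day later, exposed to inhibitors for three days; viable cell density was then measured by metabolic conversion of MTS dye, read as absorbance at 490 nm. Growth is expressed as percent of vehicle-treated control cells on the same plate.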

[3] = system: prostate line LNCap; assay: In vitro cell culture growth assay (MTS), LNCap; type: cell-based, human; conditions: LNCap cells, three days after drug treatment

Sequence of PI3K (P42336 whole entry): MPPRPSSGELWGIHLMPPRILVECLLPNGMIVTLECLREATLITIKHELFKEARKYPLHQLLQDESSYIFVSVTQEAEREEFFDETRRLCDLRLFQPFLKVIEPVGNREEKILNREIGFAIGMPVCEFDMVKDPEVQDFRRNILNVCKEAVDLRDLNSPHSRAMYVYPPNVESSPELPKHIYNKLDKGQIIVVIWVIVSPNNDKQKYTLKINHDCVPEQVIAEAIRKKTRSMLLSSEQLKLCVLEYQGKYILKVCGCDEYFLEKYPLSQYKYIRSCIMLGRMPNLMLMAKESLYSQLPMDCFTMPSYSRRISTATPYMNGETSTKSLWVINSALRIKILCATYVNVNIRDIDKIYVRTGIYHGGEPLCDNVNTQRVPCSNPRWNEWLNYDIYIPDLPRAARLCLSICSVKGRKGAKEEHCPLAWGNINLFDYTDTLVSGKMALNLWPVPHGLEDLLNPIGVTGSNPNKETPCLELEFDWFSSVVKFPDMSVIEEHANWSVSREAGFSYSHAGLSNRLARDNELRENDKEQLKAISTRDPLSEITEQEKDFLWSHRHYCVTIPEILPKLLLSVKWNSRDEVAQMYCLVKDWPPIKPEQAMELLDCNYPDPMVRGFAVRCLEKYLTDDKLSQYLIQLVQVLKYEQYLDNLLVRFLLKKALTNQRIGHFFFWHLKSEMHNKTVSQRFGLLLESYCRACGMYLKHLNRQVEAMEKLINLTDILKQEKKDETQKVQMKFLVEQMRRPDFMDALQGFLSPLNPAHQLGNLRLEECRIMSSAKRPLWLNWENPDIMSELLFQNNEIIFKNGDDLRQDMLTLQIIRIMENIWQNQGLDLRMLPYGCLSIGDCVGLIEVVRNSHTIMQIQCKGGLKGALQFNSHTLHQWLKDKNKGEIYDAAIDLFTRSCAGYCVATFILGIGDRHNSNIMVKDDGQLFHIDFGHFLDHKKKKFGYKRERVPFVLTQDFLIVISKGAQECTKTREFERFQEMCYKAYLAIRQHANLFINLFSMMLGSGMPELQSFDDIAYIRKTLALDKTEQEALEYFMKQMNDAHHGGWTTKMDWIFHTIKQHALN
Sequence of PI3K (P27986 whole entry partner): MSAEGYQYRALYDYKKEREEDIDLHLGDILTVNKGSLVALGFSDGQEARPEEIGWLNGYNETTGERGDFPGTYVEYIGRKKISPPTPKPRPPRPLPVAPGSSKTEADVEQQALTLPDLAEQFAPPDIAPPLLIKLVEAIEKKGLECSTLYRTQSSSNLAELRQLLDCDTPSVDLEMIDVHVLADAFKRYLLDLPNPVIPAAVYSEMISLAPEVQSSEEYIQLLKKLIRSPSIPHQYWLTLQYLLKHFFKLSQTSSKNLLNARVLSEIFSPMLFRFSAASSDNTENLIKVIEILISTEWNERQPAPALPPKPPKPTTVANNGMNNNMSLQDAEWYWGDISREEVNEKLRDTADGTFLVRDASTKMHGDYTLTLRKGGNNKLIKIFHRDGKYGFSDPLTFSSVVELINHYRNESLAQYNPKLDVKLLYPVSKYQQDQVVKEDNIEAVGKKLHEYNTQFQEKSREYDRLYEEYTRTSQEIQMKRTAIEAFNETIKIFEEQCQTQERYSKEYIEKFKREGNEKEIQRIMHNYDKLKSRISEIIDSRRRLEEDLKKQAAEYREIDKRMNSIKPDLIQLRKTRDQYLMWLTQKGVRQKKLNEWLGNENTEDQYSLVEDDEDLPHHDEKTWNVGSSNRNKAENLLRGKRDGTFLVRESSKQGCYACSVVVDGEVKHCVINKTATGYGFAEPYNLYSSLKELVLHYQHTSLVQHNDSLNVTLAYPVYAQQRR

Compound	IC50 [1] [nM]	IC50 [2] [nM]	IC50 [3] [nM]	IC50 ([2]; Homo sapiens, 72 h) [nM]	IC50 ([3]; Homo sapiens, LNCaP, 72 h) [nM]
CNC(=O)Nc1ccc(-c2nc(N3CCOCC3)c3cnn(C4CCN(Cc5ccc(C)cc5)CC4)c3n2)cc1 [Compound 675, 1-methyl-3-(4-{1-[1-(4-methylbenzyl)piperidin-4-yl]-4-morpholin-4-yl-1H-pyrazolo[3,4-d]pyrimidin-6-yl}phenyl)urea]	25	110	< 27	–	–
O=C(NO)Nc1ccc(-c2nc(N3CCOCC3)c3cnn(-c4ccccc4)c3n2)cc1 [Compound 539, 1-hydroxy-3-[4-(4-morpholin-4-yl-1-phenyl-1H-pyrazolo[3,4-d]pyrimidin-6-yl)phenyl]urea]	211	–	–	1100	480
COC(=O)N1CCC(n2ncc3c(N4CCOCC4)nc(-c4ccc(NC(=O)Nc5ccc(CCNCCN)cc5)cc4)nc32)CC1 [Compound 920, methyl 4-[6-(4-{[(4-{2-[(2-aminoethyl)amino]ethyl}phenyl)carbamoyl]amino}phenyl)-4-morpholin-4-yl-1H-pyrazolo[3,4-d]pyrimidin-1-yl]piperidine-1-carboxylate]	4	–	–	300	0.8
CCCOC(=O)N1CCC(n2ncc3c(N4CCOCC4)nc(-c4ccc(NC(=O)Nc5cccnc5)cc4)nc32)CC1 [Compound 850, propyl 4-(4-morpholin-4-yl-6-{4-[(pyridin-3-ylcarbamoyl)amino]phenyl}-1H-pyrazolo[3,4-d]pyrimidin-1-yl)piperidine-1-carboxylate]	38	–	–	120	< 27
COC(=O)N1CCC(n2ncc3c(N4CCOCC4)nc(-c4ccc(NC(=O)OCCN5CCN(C)CC5)cc4)nc32)CC1 [Compound 907, methyl 4-{6-[4-({[2-(4-methylpiperazin-1-yl)ethoxy]carbonyl}amino)phenyl]-4-morpholin-4-yl-1H-pyrazolo[3,4-d]pyrimidin-1-yl}piperidine-1-carboxylate]	1850	–	–	7000	5500
CNC(=O)Nc1ccc(-c2nc(N3CCOCC3)c3cnn(C4CCN(Cc5cccnc5)CC4)c3n2)cc1F [Compound 597, 1-(2-fluoro-4-{4-morpholin-4-yl-1-[1-(pyridin-3-ylmethyl)piperidin-4-yl]-1H-pyrazolo[3,4-d]pyrimidin-6-yl}phenyl)-3-methylurea]	246	–	–	180	27
Fc1ccc(CN2CCC(n3ncc4c(N5CCOCC5)nc(-c5ccc6[nH]ccc6c5)nc43)CC2)cn1 [Example 172, 1-{1-[(6-fluoropyridin-3-yl)methyl]piperidin-4-yl}-6-(1H-indol-5-yl)-4-morpholin-4-yl-1H-pyrazolo[3,4-d]pyrimidine]	366	–	–	1700	1000
CN(C)c1ccc(CC(=O)Nc2ccc(-c3nc(N4CCOCC4)c4cnn(C5CCCCO5)c4n3)cc2)cc1 (stereo not drawn) [Compound 276, 2-[4-(dimethylamino)phenyl]-N-{4-[4-morpholin-4-yl-1-(tetrahydro-2H-pyran-2-yl)-1H-pyrazolo[3,4-d]pyrimidin-6-yl]phenyl}acetamide]	6470	–	–	60000	11000
CC(C)OC(=O)N1CCC(n2ncc3c(N4CCOCC4)nc(-c4ccc(NC(=O)NCCO)cc4)nc32)CC1 [Compound 834, isopropyl 4-[6-(4-{[(2-hydroxyethyl)carbamoyl]amino}phenyl)-4-morpholin-4-yl-1H-pyrazolo[3,4-d]pyrimidin-1-yl]piperidine-1-carboxylate]	450	–	–	180	220
CNC(=O)Nc1ccc(-c2nc(N3CCOCC3)c3cnn(C4CCN(Cc5cncc(Br)c5)CC4)c3n2)cc1 [Compound 638, 1-[4-(1-{1-[(5-bromopyridin-3-yl)methyl]piperidin-4-yl}-4-morpholin-4-yl-1H-pyrazolo[3,4-d]pyrimidin-6-yl)phenyl]-3-methylurea]	72	560	95	–	–
CC(C)C(=O)N1CCC(n2ncc3c(N4CCOCC4)nc(-c4ccc(NC(=O)NCCO)cc4)nc32)CC1 [Compound 823, 1-(2-hydroxyethyl)-3-{4-[1-(1-isobutyrylpiperidin-4-yl)-4-morpholin-4-yl-1H-pyrazolo[3,4-d]pyrimidin-6-yl]phenyl}urea]	571	–	–	320	3500
C1=C(c2nc(N3CCOCC3)c3cnn(-c4ccccc4)c3n2)CCOC1 [Compound 98]	754	–	–	33000	60000
COC(=O)Nc1ccc(-c2nc(N3CCOCC3)c3cnn(C4CCN(C(=O)c5ccc(F)cc5)CC4)c3n2)cc1 [Example 445, methyl (4-{1-[1-(4-fluorobenzoyl)piperidin-4-yl]-4-morpholin-4-yl-1H-pyrazolo[3,4-d]pyrimidin-6-yl}phenyl)carbamate]	989	–	–	1600	580
CNC(=O)Nc1ccc(-c2nc(N3CCOCC3)c3cnn(C4CCN(C(=O)c5ccc(Cl)nc5)CC4)c3n2)cc1 [Compound 668, 1-[4-(1-{1-[(6-chloropyridin-3-yl)carbonyl]piperidin-4-yl}-4-morpholin-4-yl-1H-pyrazolo[3,4-d]pyrimidin-6-yl)phenyl]-3-methylurea]	84	410	150	–	–
O=C(Cc1ccccc1)N1CCC(n2ncc3c(N4CCOCC4)nc(-c4ccc5[nH]ccc5c4)nc32)CC1 [Compound 492, 6-(1H-indol-5-yl)-4-morpholin-4-yl-1-[1-(phenylacetyl)piperidin-4-yl]-1H-pyrazolo[3,4-d]pyrimidine]	692	–	–	3000	700
CNC(=O)Nc1ccc(-c2nc(N3CCOCC3)c3cnn(C4CCN(C(=O)c5ccc(C)nc5)CC4)c3n2)cc1 [Compound 664, 1-methyl-3-[4-(1-{1-[(6-methylpyridin-3-yl)carbonyl]piperidin-4-yl}-4-morpholin-4-yl-1H-pyrazolo[3,4-d]pyrimidin-6-yl)phenyl]urea]	118	270	330	–	–
Brc1ccc(CN2CCC(n3ncc4c(N5CCOCC5)nc(-c5ccc6[nH]ccc6c5)nc43)CC2)cn1 [Example 173, 1-{1-[(6-bromopyridin-3-yl)methyl]piperidin-4-yl}-6-(1H-indol-5-yl)-4-morpholin-4-yl-1H-pyrazolo[3,4-d]pyrimidine]	262	–	–	2700	1200
NC(=O)CN1CCC(n2ncc3c(N4CCOCC4)nc(-c4ccc5[nH]ccc5c4)nc32)CC1 [Compound 495, 2-{4-[6-(1H-indol-5-yl)-4-morpholin-4-yl-1H-pyrazolo[3,4-d]pyrimidin-1-yl]piperidin-1-yl}acetamide]	2660	–	–	2800	800
O=C(NCCc1ccccc1)Nc1ccc(-c2nc(N3CCOCC3)c3cnn(C4CCN(Cc5ccccc5)CC4)c3n2)cc1 [Compound 505, 1-{4-[1-(1-benzylpiperidin-4-yl)-4-morpholin-4-yl-1H-pyrazolo[3,4-d]pyrimidin-6-yl]phenyl}-3-(2-phenylethyl)urea]	2140	–	–	20000	1000
Oc1cccc(-c2nc(N3CCCOCC3)c3cnn(-c4ccccc4)c3n2)c1 [Compound 962, 3-[4-(1,4-oxazepan-4-yl)-1-phenyl-1H-pyrazolo[3,4-d]pyrimidin-6-yl]phenol]	1090	–	–	12000	6000
COC(=O)Nc1ccc(-c2nc(N3CCOCC3)c3cnn(C4CCN(C(=O)c5ccccc5)CC4)c3n2)cc1 [Example 442, methyl {4-[1-(1-benzoylpiperidin-4-yl)-4-morpholin-4-yl-1H-pyrazolo[3,4-d]pyrimidin-6-yl]phenyl}carbamate]	1010	–	–	500	150
CNS(=O)(=O)c1ccc(-c2nc(N3CCOCC3)c3cnn(C4CCN(Cc5ccccc5)CC4)c3n2)cc1 [Compound 86]	4660	–	–	6500	7200
CNC(=O)Nc1ccc(-c2nc(N3CCOCC3)c3cnn(C4CCN(Cc5ccccn5)CC4)c3n2)cc1 [Example 331, 1-methyl-3-(4-{4-morpholin-4-yl-1-[1-(pyridin-2-ylmethyl)piperidin-4-yl]-1H-pyrazolo[3,4-d]pyrimidin-6-yl}phenyl)urea]	65	–	–	500	27
CCOC(=O)N1CCC(n2ncc3c(N4CCOC[C@H]4C)nc(-c4ccc(NC(=O)NCCF)cc4)nc32)CC1 [Compound 890, ethyl 4-{6-(4-{[(2-fluoroethyl)carbamoyl]amino}phenyl)-4-[(3R)-3-methylmorpholin-4-yl]-1H-pyrazolo[3,4-d]pyrimidin-1-yl}piperidine-1-carboxylate]	4550	–	–	500	12
CNC(=O)Nc1ccc(-c2nc(N3CCOCC3)c3cnn(C4CCN(C(=O)c5ccc(C#N)cc5)CC4)c3n2)cc1 [Example 368, 1-(4-{1-[1-(4-cyanobenzoyl)piperidin-4-yl]-4-morpholin-4-yl-1H-pyrazolo[3,4-d]pyrimidin-6-yl}phenyl)-3-methylurea]	89	–	–	200	150
O=C(CCl)N1CCC(n2ncc3c(N4CCOCC4)nc(-c4ccc5[nH]ccc5c4)nc32)CC1 [Compound 93]	337	–	–	1200	1100
COC(=O)Nc1ccc(-c2nc(N3CCOCC3)c3cnn(C4CCN(C(=O)c5cccnc5)CC4)c3n2)cc1 [Example 213, methyl (4-{4-morpholin-4-yl-1-[1-(pyridin-3-ylcarbonyl)piperidin-4-yl]-1H-pyrazolo[3,4-d]pyrimidin-6-yl}phenyl)carbamate]	514	–	–	1200	355
